What all share (format): cell-based
Test [1] concerns HAP1 MTAP-deleted cell line. The test is described as follows: viability assay for the MTAP-deleted cell line. The conditions noted are these: Homo sapiens.
Test [2] relates to PRMT5 (SDMA) in HAP1 MTAP-deleted cell line. The test is described as follows: SDMA in-cell western assay, HAP1 MTAP-deleted cell line. The note with it: for IC50 / IC90: Homo sapiens, SDMA in-cell western, HAP1 MTAP-deleted (MTAP-null) cell line; for Hap1 MTAP intact/deleted ratio: ratio of SDMA in-cell western IC50 in HAP1 MTAP-intact to IC50 in HAP1 MTAP-deleted cell line. An excerpt: (§1) HAP1 MTAP-intact is a cell line in which endogenous levels of MTAP are expressed, and HAP1 MTAP-deleted is an MTAP-null cell line.

Test [3] has as its system PRMT5 (SDMA) in HAP1 MTAP-intact cell line. The test is described as follows: SDMA in-cell western assay, HAP1 MTAP-intact cell line. The conditions noted are these: Homo sapiens, HAP1 MTAP-intact cell line (endogenous MTAP), read-out: Hap 1 MTAP intact IC50.
Excerpt: as §1

SMILES strings stand for the structures.

These results are taken from patent US20250282749A1 (Tango Therapeutics, Inc., priority 2022, published 2025).

On to `Cc1cc(NC(=O)C(=O)N2C[C@@H](C)N(C(=O)OC(C)(C)C)C[C@@H]2c2ccc(F)c(F)c2)cnc1N` [Compound 21], for which the IC50 is 100 to 1000 nM in test [1], 5 to 50 nM in test [2] and more than 50 nM in test [3]. In addition, the IC90 in test [2] is 75 to 125 nM. Further, the “Hap1 MTAP intact/deleted ratio” value in test [2] is on record as “C (an IC50 ratio of less than 15 fold)”.

In turn, `C[C@@H]1CN(C(=O)C(=O)Nc2cnc(N)c3cn[nH]c23)[C@@H](c2ccccc2)CN1C` [Compound 57] displayed an IC50 in test [1] of less than 100 nM. Moreover, in test [2], the 50% inhibitory concentration (IC50) was less than 5 nM, the IC90 was less than 75 nM and the “Hap1 MTAP intact/deleted ratio” value is recorded as “B (an IC50 ratio greater than or equal to 15 fold but lower than 30 fold)”. Further, the IC50 in test [3] was more than 50 nM.

For the molecule `CC(C)C(=O)N1CCN(C(=O)C(=O)Nc2cnc(N)c3cn[nH]c23)[C@@H](c2ccccc2)C1` [Compound 126, (S)—N-(4-amino-1H-pyrazolo[4,3-c]pyridin-7-yl)-2-(4-isobutyryl-2-phenylpiperazin-1-yl)-2-oxoacetamide], the results for the IC50 in test [1], in test [2] and in test [3] were 100 to 1000 nM, less than 5 nM and more than 50 nM, respectively. Moreover, in test [2], the IC90 is less than 75 nM. Moreover, the “Hap1 MTAP intact/deleted ratio” value in test [2] was “A (an IC50 ratio greater than or equal to 30 fold)”.

Molecule `Cc1cc(NC(=O)C(=O)N2C[C@H](C)N(CC(C)C)C[C@H]2c2ccc(F)cc2)cnc1N` [Compound 80, N-(6-amino-5-methyl-3-pyridyl)-2-[(2R,5S)-2-(4-fluorophenyl)-4-isobutyl-5-methyl-piperazin-1-yl]-2-oxo-acetamide] returned a concentration for half-maximal inhibition (IC50) in test [1] of 100 to 1000 nM. Also, in test [2], the IC50 lay within 5 to 50 nM, the IC90 was more than 125 nM and the “Hap1 MTAP intact/deleted ratio” value is reported as “C (an IC50 ratio of less than 15 fold)”. For the same molecule, the IC50 in test [3] was more than 50 nM.

For `CCc1cc(NC(=O)C(=O)N2C[C@@H](C)N(C(=O)C3(C)CC3)C[C@@H]2c2ccccc2)cnc1N` [Compound 58, N-(6-amino-5-ethylpyridin-3-yl)-2-((2S,5R)-5-methyl-4-(1-methylcyclopropanecarbonyl)-2-phenylpiperazin-1-yl)-2-oxoacetamide], the IC50 in test [1] is less than 100 nM; in test [2] it was 5 to 50 nM; in test [3], more than 50 nM. Moreover, the IC90 in test [2] is less than 75 nM. Further, the “Hap1 MTAP intact/deleted ratio” value in test [2] is recorded as “C (an IC50 ratio of less than 15 fold)”.

Take `C[C@@H]1CN(C(=O)C(=O)Nc2cncc3[nH]ncc23)[C@@H](c2ccc(F)cc2)CN1C(=O)C(C)(C)C` [Compound 125, 2-[(2R,5R)-4-(2,2-dimethylpropanoyl)-2-(4-fluorophenyl)-5-methyl-piperazin-1-yl]-2-oxo-N-(^1H-pyrazolo[3,4-c]pyridin-4-yl)acetamide]: the IC50 is 100 to 1000 nM in test [1], 5 to 50 nM in test [2] and more than 50 nM in test [3]. This molecule also registered an IC90 in test [2] of less than 75 nM. The “Hap1 MTAP intact/deleted ratio” value in test [2] was “A (an IC50 ratio greater than or equal to 30 fold)”.

`Cc1cc(NC(=O)C(=O)N2C[C@@H](C)N(C(=O)C3(C(F)(F)F)CC3)C[C@@H]2c2ccc(N3CCN(C)CC3)cc2)cnc1N` [Compound 77, N-(6-amino-5-methylpyridin-3-yl)-2-((2S,5R)-5-methyl-2-(4-(4-methylpiperazin-1-yl)phenyl)-4-(1-(trifluoromethyl)cyclopropanecarbonyl)piperazin-1-yl)-2-oxoacetamide] gave an IC50 in test [1] of less than 100 nM. Also, in test [2], the half-maximal inhibitory concentration (IC50) is less than 5 nM, the IC90 is less than 75 nM and the “Hap1 MTAP intact/deleted ratio” value is reported as “B (an IC50 ratio greater than or equal to 15 fold but lower than 30 fold)”. In test [3], the IC50 lay within 5 to 50 nM.

For `CC(=O)N1C[C@H](c2ccccc2)N(C(=O)C(=O)Nc2cnc(N)c3cn[nH]c23)C[C@H]1C` [Compound 52], the half-maximal inhibitory concentration (IC50) in test [1] was less than 100 nM. Besides, in test [2], the IC50 lay in the range of 5 to 50 nM, the IC90 was less than 75 nM and the “Hap1 MTAP intact/deleted ratio” value is reported as “B (an IC50 ratio greater than or equal to 15 fold but lower than 30 fold)”. The IC50 in test [3] is more than 50 nM.

As for `C[C@@H]1CN(C(=O)C(=O)Nc2cnc(N)c3cn[nH]c23)[C@@H](c2ccccc2)CO1` [Compound 107], the half-inhibitory concentration (IC50) in test [1] lay in the range of 100 to 1000 nM. Moreover, in test [2], the concentration for half-maximal inhibition (IC50) was less than 5 nM, the IC90 is less than 75 nM and the “Hap1 MTAP intact/deleted ratio” value was “A (an IC50 ratio greater than or equal to 30 fold)”. For the same molecule, the half-inhibitory concentration (IC50) in test [3] was more than 50 nM.

On to `Cc1cc(NC(=O)C(=O)N2C[C@H](C)N(C(=O)C(C)C)C[C@H]2c2ccc3scnc3c2)cnc1N` (single isomer, unassigned) [Compound 45], for which the IC50 in test [1] is more than 1000 nM. For the same molecule, in test [2], the IC50 is more than 50 nM, the IC90 was more than 125 nM and the “Hap1 MTAP intact/deleted ratio” value is recorded as “C (an IC50 ratio of less than 15 fold)”. The half-inhibitory concentration (IC50) in test [3] is more than 50 nM.

With `C[C@@H]1CN(C(=O)C(=O)Nc2cnc(N)c(C3CC3)c2)[C@@H](c2ccc(F)cc2)CN1C(=O)C1(C)CC1` [Compound 8, N-(6-amino-5-cyclopropylpyridin-3-yl)-2-((2S,5R)-2-(4-fluorophenyl)-5-methyl-4-(1-methylcyclopropanecarbonyl)piperazin-1-yl)-2-oxoacetamide], the half-inhibitory concentration (IC50) in test [1] is less than 100 nM; in test [2] it was less than 5 nM; in test [3], 5 to 50 nM. Further, the IC90 in test [2] was less than 75 nM. In test [2], the “Hap1 MTAP intact/deleted ratio” value was “C (an IC50 ratio of less than 15 fold)”.

`Cc1cc(NC(=O)C(=O)N2C[C@@H](C)N(C(=O)C(C)(C)CN3CCN(C)CC3)C[C@@H]2c2ccccc2)cnc1N` [Compound 134]: in test [1], the IC50 is less than 100 nM. In test [2], the half-inhibitory concentration (IC50) lay in the range of 5 to 50 nM, the IC90 was more than 125 nM and the “Hap1 MTAP intact/deleted ratio” value was “C (an IC50 ratio of less than 15 fold)”. In addition, the IC50 in test [3] was in the range of 5 to 50 nM.

Turning to `Cc1cc(NC(=O)C(=O)N2C[C@@H](C)N(C(=O)C3(C(F)(F)F)CC3)C[C@@H]2c2ccc(Cl)cc2)cnc1N` [Compound 131, N-(6-amino-5-methylpyridin-3-yl)-2-((5R)-2-(4-chlorophenyl)-5-methyl-4-(1-(trifluoromethyl)cyclopropanecarbonyl)piperazin-1-yl)-2-oxoacetamide], the half-inhibitory concentration (IC50) in test [1] lay in the range of 100 to 1000 nM. For the same molecule, in test [2], the concentration for half-maximal inhibition (IC50) is less than 5 nM, the 90% effect concentration (IC90) lay within 75 to 125 nM and the “Hap1 MTAP intact/deleted ratio” value is recorded as “C (an IC50 ratio of less than 15 fold)”. In test [3], the concentration for half-maximal inhibition (IC50) was more than 50 nM.

As to `C[C@@H]1CN(C(=O)C(=O)Nc2cncc3cn[nH]c23)[C@@H](c2ccccc2)CN1C(=O)C1(C)CC1` [Compound 91, 2-((2S,5R)-5-methyl-4-(1-methylcyclopropanecarbonyl)-2-phenylpiperazin-1-yl)-2-oxo-N-(1H-pyrazolo[4,3-c]pyridin-7-yl)acetamide], in test [1], the concentration for half-maximal inhibition (IC50) is less than 100 nM. In test [2], the half-maximal inhibitory concentration (IC50) was 5 to 50 nM, the IC90 is more than 125 nM and the “Hap1 MTAP intact/deleted ratio” value is “B (an IC50 ratio greater than or equal to 15 fold but lower than 30 fold)”. The 50% inhibitory concentration (IC50) in test [3] was more than 50 nM.

As for `C[C@@H]1CN(C(=O)C(=O)Nc2cnc(N)c3c2cnn3C)[C@@H](c2ccccc2)CN1C` [Compound 164, N-(7-Amino-1-methyl-pyrazolo[3,4-c]pyridin-4-yl)-2-oxo-2-[(2S,5R)-4,5-dimethyl-2-phenyl-piperazin-1-yl]acetamide], in test [1], the IC50 is less than 100 nM. Also, in test [2], the half-inhibitory concentration (IC50) was in the range of 5 to 50 nM, the IC90 lay within 75 to 125 nM and the “Hap1 MTAP intact/deleted ratio” value is on record as “A (an IC50 ratio greater than or equal to 30 fold)”. Further, the IC50 in test [3] is more than 50 nM.

The molecule `Cc1cc(NC(=O)C(=O)N2C[C@@H](C)N(C(=O)C(C)(C)CN3CCn4ccnc4C3)C[C@@H]2c2ccccc2)cnc1N` [Compound 109] had a 50% inhibitory concentration (IC50) in test [1] of 100 to 1000 nM. In test [2], the IC50 lay within 5 to 50 nM, the concentration for an effect of 90% (IC90) was more than 125 nM and the “Hap1 MTAP intact/deleted ratio” value was “C (an IC50 ratio of less than 15 fold)”. For the same molecule, the IC50 in test [3] was more than 50 nM.

As for `C[C@@H]1CN(C(=O)C(=O)Nc2cnc(N)c(C3COC3)c2)[C@@H](c2ccc(F)cc2)CN1C(=O)C1(C(F)(F)F)CC1` [Compound 72, N-(6-amino-5-(oxetan-3-yl)pyridin-3-yl)-2-((2S,5R)-2-(4-fluorophenyl)-5-methyl-4-(1-(trifluoromethyl)cyclopropanecarbonyl)piperazin-1-yl)-2-oxoacetamide], the IC50 in test [1] is less than 100 nM. In test [2], the concentration for half-maximal inhibition (IC50) is 5 to 50 nM, the concentration for an effect of 90% (IC90) is 75 to 125 nM and the “Hap1 MTAP intact/deleted ratio” value is “A (an IC50 ratio greater than or equal to 30 fold)”. For the same molecule, the IC50 in test [3] is more than 50 nM.

As for `C[C@@H]1CN(C(=O)C(=O)Nc2cncc3cn[nH]c23)[C@@H](c2cccc(Cl)c2)CN1C(=O)C(C)(C)C` [Compound 9, 2-((2S,5R)-2-(3-chlorophenyl)-5-methyl-4-pivaloylpiperazin-1-yl)-2-oxo-N-(1H-pyrazolo[4,3-c]pyridin-7-yl)acetamide], the IC50 was 100 to 1000 nM in test [1], 5 to 50 nM in test [2] and more than 50 nM in test [3]. For the same molecule, the IC90 in test [2] is more than 125 nM. The “Hap1 MTAP intact/deleted ratio” value in test [2] is recorded as “B (an IC50 ratio greater than or equal to 15 fold but lower than 30 fold)”.

`CCc1cc(NC(=O)C(=O)N2CCN(C(=O)C3(C(F)(F)F)CC3)[C@@H](C)[C@@H]2c2ccc(F)cc2)cnc1N` [Compound 1] yielded a concentration for half-maximal inhibition (IC50) in test [1] of less than 100 nM. In test [2], the IC50 is 5 to 50 nM, the concentration for an effect of 90% (IC90) lay within 75 to 125 nM and the “Hap1 MTAP intact/deleted ratio” value is “A (an IC50 ratio greater than or equal to 30 fold)”. Moreover, in test [3], the IC50 is more than 50 nM.
